Data on 33 compounds can be found in US7919504B2, “Thiadiazole modulators of PKB” (Amgen Inc., priority 2007, dated 2011).

SMILES strings stand for the structures. Structures can show the parent of a compound that is named as a salt.

In this assay the target is T1, PKBα (Homo sapiens, UniProt P31749).
T1 construct: the full length PKBα and a kinase domain of PKBα with pleckstrin domain (amino acids 1-117) deleted
T1 sequence (P31749 118-480 limits assumed): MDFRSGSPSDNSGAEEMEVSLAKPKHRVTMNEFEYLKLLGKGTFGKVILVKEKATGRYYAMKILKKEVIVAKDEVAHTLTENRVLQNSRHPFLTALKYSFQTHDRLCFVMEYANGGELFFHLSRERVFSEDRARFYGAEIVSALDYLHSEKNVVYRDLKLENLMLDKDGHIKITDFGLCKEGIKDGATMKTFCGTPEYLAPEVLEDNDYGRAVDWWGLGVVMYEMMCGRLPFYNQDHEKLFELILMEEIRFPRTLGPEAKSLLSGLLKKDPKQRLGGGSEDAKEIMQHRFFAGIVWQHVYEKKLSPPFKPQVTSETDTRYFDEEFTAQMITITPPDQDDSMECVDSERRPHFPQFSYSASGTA
Put plainly: PKB kinase assay (P33-labeled ATP, synthetic peptide substrate, filter plate capture). Format: biochemical. The settings on record: with respect to PKBα. An excerpt: The kinase assay for evaluating PKB activity comprises active PKB enzymes, a PKB specific substrate, and P^33-labeled ATP. Two form of PKBα enzymes were used, the full length PKBα and a kinase domain of PKBα with pleckstrin domain (amino acids 1-117) deleted. Both PKB enzymes were obtained from Upstate cell signaling solutions (Cat. #14-276 and 14-341). The PKB substrate used is a synthetic peptide (ARKRERTYSFGHHA (SEQ ID NO: 1)) as described in Obata et al., J. Biol. Chem. 275 (46), 36108-36115 (2000). The phosphorylated substrate was captured by a phosphocellulose membrane filter plate (MILLIPORE) and measured by a Wallac Microbeta liquid scintillation counter (Perkin Elmer). Table 1 provides the IC50 values obtained for each of the examples with respect to PKBα.
For `CC(Nc1nnc(-c2ccc3cnccc3c2)s1)c1ccco1` (racemic) [Example 22, (±)-N-(1-(Furan-2-yl)ethyl)-5-(isoquinolin-6-yl)-1,3,4-thiadiazol-2-amine], the IC50 – broadly, the midpoint of a concentration-inhibition curve – lay in the range of 1000 to 10000 nM.
`CCC(O)CNc1nnc(-c2ccc3cnccc3c2)s1` (racemic) [Example 23, (±)-1-(5-(Isoquinolin-6-yl)-1,3,4-thiadiazol-2-ylamino)butan-2-ol] registered an IC50 of 1000 to 10000 nM.
`Oc1cccc(C(O)CNc2nnc(-c3ccc4cnccc4c3)s2)c1` (racemic) [Example 24, (±)-3-(1-Hydroxy-2-(5-(isoquinolin-6-yl)-1,3,4-thiadiazol-2-ylamino)ethyl)phenol]: the IC50 is 1000 to 10000 nM.
With `O=C(Nc1nnc(-c2ccc3cnccc3c2)s1)[C@@H]1NCC[C@@H]1c1ccccc1` (racemic) [Example 26, (±)-cis-N-(5-(Isoquinolin-6-yl)-1,3,4-thiadiazol-2-yl)-3-phenylpyrrolidine-2-carboxamide], the IC50 lay in the range of 50 to 1000 nM.
For the compound `OC(CNc1nnc(-c2ccc3cnccc3c2)s1)Cc1ccccc1` (racemic) [Example 29, (±)-1-(5-(isoquinolin-6-yl)-1,3,4-thiadiazol-2-ylamino)-3-phenylpropan-2-ol], the IC50 was in the range of 50 to 1000 nM.
With `OC(CNc1nnc(-c2ccc3cnccc3c2)s1)Cc1ccc(C(F)(F)F)cc1` (racemic) [Example 30, (±)-1-(5-(Isoquinolin-6-yl)-1,3,4-thiadiazol-2-ylamino)-3-(4-(trifluoromethyl)phenyl)propan-2-ol] the figure was 50 to 1000 nM; with `c1ccc([C@@H]2CCN[C@@H]2CNc2nnc(-c3ccc4cnccc4c3)s2)cc1` (racemic) [Example 33, Racemic mixture of 5-(isoquinolin-6-yl)-N-(((2S,3S)-3-phenylpyrrolidin-2-yl)methyl)-1,3,4-thiadiazol-2-amine and 5-(isoquinolin-6-yl)-N-(((2R,3R)-3-phenylpyrrolidin-2-yl)methyl)-1,3,4-thiadiazol-2-amine], 50 to 1000 nM; with `NC(CNc1nnc(-c2cccc3cnncc23)s1)Cc1ccc(C(F)(F)F)cc1` (stereo in doubt) [Example 28, N-((S)-2-amino-3-(4-(trifluoromethyl)phenyl)propyl)-5-(phthalazin-5-yl)-1,3,4-thiadiazol-2-amine], 1000 to 10000 nM.
With `Cn1c(=O)[nH]c2ccc(-c3nnc(NC[C@@H](N)Cc4ccc(C(F)(F)F)cc4)s3)cc21` [Example 1, 6-(5-((S)-2-Amino-3-(4-(trifluoromethyl)phenyl)propylamino)-1,3,4-thiadiazol-2-yl)-1-methyl-1H-benzo[d]imidazol-2(3H)-one], the IC50 is below 50 nM.
For the compound `N[C@H](CNc1nnc(-c2ccc3c(c2)CC(=O)N3)s1)Cc1ccc(C(F)(F)F)cc1` [Example 2, 5-(5-((S)-2-amino-3-(4-(trifluoromethyl)phenyl)propylamino)-1,3,4-thiadiazol-2-yl)indolin-2-one], the IC50 was below 50 nM.
Regarding `N[C@H](CNc1nnc(-c2cc3c(cc2F)NC(=O)C3)s1)Cc1ccc(C(F)(F)F)cc1` [Example 3, 5-(5-((S)-2-Amino-3-(4-(trifluoromethyl)phenyl)propylamino)-1,3,4-thiadiazol-2-yl)-6-fluoroindolin-2-one], the IC50 fell in the range of 50 to 1000 nM.
With `CC(F)(F)c1ccc(C[C@H](N)CNc2nnc(-c3ccc4c(c3)CC(=O)N4)s2)cc1` [Example 4, 5-(5-((S)-2-Amino-3-(4-(1,1-difluoroethyl)phenyl)propylamino)-1,3,4-thiadiazol-2-yl)indolin-2-one], the IC50 is below 50 nM.
As for `CC(C)n1c(=O)[nH]c2ccc(-c3nnc(NC[C@@H](N)Cc4ccc(C(F)(F)F)cc4)s3)cc21` [Example 5, 6-(5-((S)-2-Amino-3-(4-(trifluoromethyl)phenyl)propylamino)-1,3,4-thiadiazol-2-yl)-1-isopropyl-1H-benzo[d]imidazol-2(3H)-one], the figure is 1000 to 10000 nM; as for `CC(C)=C1C(=O)Nc2ccc(-c3nnc(NC[C@@H](N)Cc4ccc(C(F)(F)F)cc4)s3)cc21` [Example 6, 5-(5-((S)-2-Amino-3-(4-(trifluoromethyl)phenyl)propylamino)-1,3,4-thiadiazol-2-yl)-3-(propan-2-ylidene)indolin-2-one], 1000 to 10000 nM; as for `C[C@@H](c1ccc(C(F)(F)F)cc1)[C@H](N)CNc1nnc(-c2ccc3c(c2)CC(=O)N3)s1` [Example 7, 5-(5-((2S,3S)-2-Amino-3-(4-(trifluoromethyl)phenyl)butylamino)-1,3,4-thiadiazol-2-yl)indolin-2-one], below 50 nM.
For `N[C@H](CNc1nnc(-c2cc3c(Cl)cncc3s2)s1)Cc1cccc(C(F)(F)F)c1` [Example 8, N-((S)-2-amino-3-(3-(trifluoromethyl)phenyl)propyl)-5-(4-chlorothieno[2,3-c]pyridin-2-yl)-1,3,4-thiadiazol-2-amine], the 50% inhibitory concentration (IC50) was in the range of 50 to 1000 nM.
`N[C@H](CNc1nnc(-c2cc3c(Cl)cncc3s2)s1)Cc1ccc(C(F)(F)F)cc1` [Example 9, N-((S)-2-amino-3-(4-(trifluoromethyl)phenyl)propyl)-5-(4-chlorothieno[2,3-c]pyridin-2-yl)-1,3,4-thiadiazol-2-amine] had an IC50 of 50 to 1000 nM.
As for `N[C@H](CNc1nnc(-c2cc3ccncc3s2)s1)Cc1ccc(C(F)(F)F)cc1` [Example 10, N-((S)-2-Amino-3-(4-(trifluoromethyl)phenyl)propyl)-5-(thieno[2,3-c]pyridin-2-yl)-1,3,4-thiadiazol-2-amine], the figure is below 50 nM; as for `N[C@H](CNc1nnc(-c2ccc3[nH]c(=O)oc3c2)s1)Cc1ccc(C(F)(F)F)cc1` [Example 11, 6-(5-((S)-2-Amino-3-(4-(trifluoromethyl)phenyl)propylamino)-1,3,4-thiadiazol-2-yl)benzo[d]oxazol-2(3H)-one], below 50 nM; as for `N[C@H](CNc1nnc(-c2cc3c(Cl)cncc3s2)s1)Cc1ccccc1` [Example 12, N-((S)-2-Amino-3-phenylpropyl)-5-(4-chlorothieno[2,3-c]pyridin-2-yl)-1,3,4-thiadiazol-2-amine], 50 to 1000 nM.
With `Cc1cccc(C[C@H](N)CNc2nnc(-c3cc4c(Cl)cncc4s3)s2)c1` [Example 13, N-((S)-2-Amino-3-m-tolylpropyl)-5-(4-chlorothieno[2,3-c]pyridin-2-yl)-1,3,4-thiadiazol-2-amine] the figure was 50 to 1000 nM.
With `N[C@H](CNc1nnc(-c2cc3c(Cl)cncc3s2)s1)Cc1cc(F)cc(F)c1` [Example 14, N-((S)-2-Amino-3-(3,5-difluorophenyl)propyl)-5-(4-chlorothieno[2,3-c]pyridin-2-yl)-1,3,4-thiadiazol-2-amine], the IC50 is 50 to 1000 nM.
`CC1(C)C2CC[C@H](CNc3nnc(-c4ccc5cnccc5c4)s3)C1C2` (stereo partly drawn) [Example 15, N-(((2S)-6,6-Dimethylbicyclo[3.1.1]heptan-2-yl)methyl)-5-(isoquinolin-6-yl)-1,3,4-thiadiazol-2-amine] registered an IC50 of 50 to 1000 nM.
As for `OC[C@H](Nc1nnc(-c2ccc3cnccc3c2)s1)[C@@H](O)c1ccccc1` [Example 16, (1S,2S)-2-(5-(Isoquinolin-6-yl)-1,3,4-thiadiazol-2-ylamino)-1-phenylpropane-1,3-diol], the figure is 1000 to 10000 nM.
Turning to `O[C@@H]1CCCC[C@H]1CNc1nnc(-c2ccc3cnccc3c2)s1` [Example 17, (1R,2S)-2-((5-(Isoquinolin-6-yl)-1,3,4-thiadiazol-2-ylamino)methyl)cyclohexanol], the IC50 lay in the range of 50 to 1000 nM.
As for `c1ccc2[nH]c(CNc3nnc(-c4ccc5cnccc5c4)s3)nc2c1` [Example 18, N-((1H-Benzo[d]imidazol-2-yl)methyl)-5-(isoquinolin-6-yl)-1,3,4-thiadiazol-2-amine], the figure is 1000 to 10000 nM; as for `c1ccc2[nH]c(CCNc3nnc(-c4ccc5cnccc5c4)s3)nc2c1` [Example 19, N-(2-(1H-Benzo[d]imidazol-2-yl)ethyl)-5-(isoquinolin-6-yl)-1,3,4-thiadiazol-2-amine], 1000 to 10000 nM.
Turning to `CC1(C)C2CCC1(C)C(Nc1nnc(-c3ccc4cnccc4c3)s1)C2` (stereo not drawn) [Example 20, 5-(Isoquinolin-6-yl)-N-(1,7,7-trimethylbicyclo[2.2.1]heptan-2-yl)-1,3,4-thiadiazol-2-amine], the IC50 lay within 1000 to 10000 nM.
`O[C@H]1CCCC[C@H]1CNc1nnc(-c2ccc3cnccc3c2)s1` [Example 21, (1S,2S)-2-((5-(Isoquinolin-6-yl)-1,3,4-thiadiazol-2-ylamino)methyl)cyclohexanol] came in with an IC50 of 50 to 1000 nM.
With `N[C@H](CNc1nnc(-c2ccc3ncncc3c2)s1)Cc1ccc(C(F)(F)F)cc1` [Example 25, N-((S)-2-Amino-3-(4-(trifluoromethyl)phenyl)propyl)-5-(quinazolin-6-yl)-1,3,4-thiadiazol-2-amine] the figure was 50 to 1000 nM; with `FC(F)(F)c1ccc([C@@H]2CCN[C@@H]2CNc2nnc(-c3ccc4cnccc4c3)s2)cc1` [Example 27, 5-(Isoquinolin-6-yl)-N-(((2S,3S)-3-(4-(trifluoromethyl)phenyl)pyrrolidin-2-yl)methyl)-1,3,4-thiadiazol-2-amine], 1000 to 10000 nM.
For `N[C@H](C(=O)Nc1nnc(-c2ccc3cnccc3c2)s1)[C@@H](CO)c1ccc(C(F)(F)F)cc1` [Example 31, (2S,3S)-2-Amino-4-hydroxy-N-(5-(isoquinolin-6-yl)-1,3,4-thiadiazol-2-yl)-3-(4-(trifluoromethyl)phenyl)butanamide hydrochloride], the IC50 is 1000 to 10000 nM.
As for `N[C@H](COc1nnc(-c2ccc3cnccc3c2)s1)Cc1ccc(C(F)(F)F)cc1` [Example 32, (2S)-1-(5-(isoquinolin-6-yl)-1,3,4-thiadiazol-2-yloxy)-3-(4-(trifluoromethyl)phenyl)propan-2-amine], the figure is 50 to 1000 nM.
